# Measured values: PubChem BioAssay AID1918933 (Molecular Pharmacology Branch, DTP, NCI, 2023)
# “And” between values parts separate entries of the source, which are not always exact repeats. Equal entries are not always repeated.
# Test system: 186277-243-T-J2-PDC complex spheroid viability
# Assay: Anticancer human tumor 186277-243-T-J2-PDC patient-derived colon adenocarcinoma cell line growth inhibition
# Conditions: for viability, T/C: stronger effect = lower value
# Excerpt: Multicellular complex tumor spheroid response to LSD1 Inhibitor Iadademstat in combination with a variety of drugs and investigational agents in selected tumor cell lines
# The current study was undertaken to assess response to LSD1 inhibitors in combination with standard-of-care drugs and investigational agents in solid tumor complex spheroid models as well as in the K-562 leukemia. Complex spheroids include a stromal component modeled by human endothelial cells (HUVEC) and fibroblasts modeled by human mesenchymal stem cells (MSCs). The concentration ranges selected for each drug and investigational agent were based upon clinically achievable concentrations if the clinical Cmax of the agent was known.
# Compounds. The drugs and investigational agents used in this study are listed on Table 1. All of the agents used, including staurosporine (NSC755774) and gemcitabine (NSC613327), were obtained from the Developmental Therapeutics Program, NCI. FDA-approved anticancer drugs are available from the NCI at http://dtp.nci.nih.gov/branches/dscb/oncology_drugset_explanation.html. Drugs and investigational agents were >95% pure by proton nuclear magnetic resonance (NMR) and liquid chromatography/mass spectrometry (LC/MS). Stock solutions were prepared at 400x in DMSO, stored at -70 degrees C, and diluted in fresh medium prior to their use. The final concentration of DMSO in cell culture wells never exceeded 0.25% (v/v). The FDA-approved anticancer drug set is available from the Developmental Therapeutics Program at https://dtp.cancer.gov/organization/dscb/obtaining/available_plates.htm. All drugs and investigational agents were tested over a range starting from a high concentration at or near the clinical Cmax and decreasing in half-log increments. If the clinical Cmax for an agent had not been determined, the highest concentration tested was 10 microM.
# Cell Lines. The patient-derived cancer cell (PDC) lines: 292921-168-R-J2-PDC, K24384-001-R-PDC, and 521955-158-R2-J5-PDC pancreatic carcinomas, 556581-035-R-J1 ovarian carcinoma, 324938-238-R-J1-PDC, 855422-203-R-J1-PDC and 883617-216-R-J1-PDC urothelial bladder carcinomas, 743489-274-T-PDC renal cell carcinoma, 138582-R-J1 Merkel cell tumor, K60290-347-R-J1 and K57222-313-R-J1-PDC glioblastomas, 653999-131-R-J2-PDC, LG0703-F948-PDC, and 349418-098-R-PDC non-small cell lung carcinomas, 885512-296-R-J2-PDC, 171881-019-R-J1-PDC breast carcinomas and 186277-243-T-J2-PDC and 233499-124-R-J2-PDC colon carcinomas were obtained from the NCI Patient-Derived Models Repository (PDMR, https://pdmr.cancer.gov). The established cell lines NCI/ADR-RES (RRID:CVCL_14520 and OVCAR-5 (RRID:CVCL_1628) ovarian carcinomas, 786-O (RRID:CVCL_1051) and A498 (RRID:CVCL_A498) renal cell carcinoma, NCI-H211 (ATCC, cat. CRL-5824; RRID:CVCL_1529), NCI-H196 (ATCC, cat. CRL-5823, RRID:CVCL_1509), SW 1271 (ATCC, cat. CRL-2177, RRID:CVCL_1716) and NCI-H1876 (ATCC, cat. CRL-5902, RRID:CVCL_1503) small cell lung carcinomas, MDA-MB-231 (RRID:CVCL_0062) and MDA-MB-468 (RRID:CVCL_0419)breast carcinomas (10-12). Pooled donor human umbilical vein endothelial cells (HUVEC, Lonza, cat. CC-2519) and human mesenchymal stem cells (hMSC, Lonza, cat. PT-2501) were purchased from Lonza (Walkersville, MD).
# Cell Culture. All cells were maintained in an incubator at 37 degrees C and 5% CO2 with 95% humidity. The PDC lines were cultured according to standard operating procedures established by the NCI PDMR (https://pdmr.cancer.gov). Briefly all PDCs were thawed and cultured in Matrigel-coated flasks prepared with a working solution of 1X Ham's F-12 nutrient mix, without supplementation (Invitrogen, Waltham, MA, cat. 11765054), 100 U/mL penicillin-streptomycin (Invitrogen, cat. 15140122), and 2.5% Matrigel (Corning Inc., Corning, NY, cat. 354248) for the first three passages. […]
# [1] = curve of first compound, second compound 0.1 µM
# [2] = curve of first compound, second compound 0.316 µM
# [3] = curve of first compound, second compound 1 µM
# [4] = curve of first compound, second compound 3.16 µM
# [5] = curve of first compound, second compound 10 µM
# [6] = second compound 0.1 µM, first compound 0.00949 µM
# [7] = second compound 0.1 µM, first compound 0.03 µM
# [8] = second compound 0.1 µM, first compound 0.0949 µM
# [9] = second compound 0.1 µM, first compound 0.3 µM
# [10] = second compound 0.1 µM, first compound 0.949 µM
# [11] = second compound 0.1 µM, first compound 3 µM
# [12] = second compound 0.316 µM, first compound 0.00949 µM
# [13] = second compound 0.316 µM, first compound 0.03 µM
# [14] = second compound 0.316 µM, first compound 0.0949 µM
# [15] = second compound 0.316 µM, first compound 0.3 µM
# [16] = second compound 0.316 µM, first compound 0.949 µM
# [17] = second compound 0.316 µM, first compound 3 µM
# [18] = second compound 1 µM, first compound 0.00949 µM
# [19] = second compound 1 µM, first compound 0.03 µM
# [20] = second compound 1 µM, first compound 0.0949 µM
# [21] = second compound 1 µM, first compound 0.3 µM
# [22] = second compound 1 µM, first compound 0.949 µM
# [23] = second compound 1 µM, first compound 3 µM
# [24] = second compound 3.16 µM, first compound 0.00949 µM
# [25] = second compound 3.16 µM, first compound 0.03 µM
# [26] = second compound 3.16 µM, first compound 0.0949 µM
# [27] = second compound 3.16 µM, first compound 0.3 µM
# [28] = second compound 3.16 µM, first compound 0.949 µM
# [29] = second compound 3.16 µM, first compound 3 µM
# [30] = second compound 10 µM, first compound 0.00949 µM
# [31] = second compound 10 µM, first compound 0.03 µM
# [32] = second compound 10 µM, first compound 0.0949 µM
# [33] = second compound 10 µM, first compound 0.3 µM
# [34] = second compound 10 µM, first compound 0.949 µM
# [35] = second compound 10 µM, first compound 3 µM
# 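Further: 7 day exposure to compounds.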
# 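Wherever viability, T/C is given: 100% = DMSO vehicle control viability.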
smiles,measurement,setting,value
COc1cc(C2c3cc4c(cc3C(OC3OC5COC(C)OC5C(O)C3O)C3COC(=O)C23)OCO4)cc(OC)c1O (centres undefined) + NC1CC1c1ccc(-c2cccc(O)c2)cc1,IC50,[1],596 nM
same,IC50,[2],586 nM
same,IC50,[3],667 nM
same,IC50,[4],635 nM
same,IC50,[5],458 nM
same,"viability, T/C",[6],107%
same,"viability, T/C",[7],134%
same,"viability, T/C",[8],116%
same,"viability, T/C",[9],73.7%
same,"viability, T/C",[10],36.2%
same,"viability, T/C",[11],17.4%
same,"viability, T/C",[12],103%
same,"viability, T/C",[13],134%
same,"viability, T/C",[14],118%
same,"viability, T/C",[15],73%
same,"viability, T/C",[16],36.6%
same,"viability, T/C",[17],18%
same,"viability, T/C",[18],99.7%
same,"viability, T/C",[19],134%
same,"viability, T/C",[20],121%
same,"viability, T/C",[21],80.9%
same,"viability, T/C",[22],38.6%
same,"viability, T/C",[23],17.7%
same,"viability, T/C",[24],100%
same,"viability, T/C",[25],137%
same,"viability, T/C",[26],133%
same,"viability, T/C",[27],79%
same,"viability, T/C",[28],39.9%
same,"viability, T/C",[29],17.4%
same,"viability, T/C",[30],94.3%
same,"viability, T/C",[31],146%
same,"viability, T/C",[32],119%
same,"viability, T/C",[33],64.1%
same,"viability, T/C",[34],29.9%
same,"viability, T/C",[35],11.2%
O=C(C=Cc1cccc(S(=O)(=O)Nc2ccccc2)c1)NO + NC1CCC(NC2CC2c2ccccc2)CC1,IC50,[1],289 nM
same,IC50,[2],290 nM
same,IC50,[3],294 nM
same,IC50,[4],305 nM
same,IC50,[5],285 nM
same,"viability, T/C",[6],109%
same,"viability, T/C",[7],114%
same,"viability, T/C",[8],121%
same,"viability, T/C",[9],47.7%
same,"viability, T/C",[10],20.5%
same,"viability, T/C",[11],5.16%
same,"viability, T/C",[12],116%
same,"viability, T/C",[13],110%
same,"viability, T/C",[14],109%
same,"viability, T/C",[15],47%
same,"viability, T/C",[16],15.7%
same,"viability, T/C",[17],2.43%
same,"viability, T/C",[18],113%
same,"viability, T/C",[19],105%
same,"viability, T/C",[20],104%
same,"viability, T/C",[21],47.1%
same,"viability, T/C",[22],16.6%
same,"viability, T/C",[23],2.3%
same,"viability, T/C",[24],99.7%
same,"viability, T/C",[25],92%
same,"viability, T/C",[26],113%
same,"viability, T/C",[27],50.6%
same,"viability, T/C",[28],16%
same,"viability, T/C",[29],1.48%
same,"viability, T/C",[30],104%
same,"viability, T/C",[31],102%
same,"viability, T/C",[32],113%
same,"viability, T/C",[33],47.3%
same,"viability, T/C",[34],15%
same,"viability, T/C",[35],1.31%
Nc1ccn(C2OC(CO)C(O)C2(F)F)c(=O)n1 (centres undefined),"viability, T/C",compound 0.000949 µM,17.2% and 101%
same,"viability, T/C",compound 0.003 µM,16.7% and 32.3%
same,"viability, T/C",compound 0.00949 µM,16.5% and 13%
same,"viability, T/C",compound 0.03 µM,16.5% and 11.9%
same,"viability, T/C",compound 0.0949 µM,17.1% and 12.7%
same,"viability, T/C",compound 0.3 µM,14.7% and 14%
same,IC50,curve of compound,< 0.949 nM and 2.23 nM
Nc1ncn(C2CC(O)C(CO)O2)c(=O)n1 (centres undefined),"viability, T/C",compound 0.00316 µM,93.4% and 108%
same,"viability, T/C",compound 0.01 µM,102% and 99.4%
same,"viability, T/C",compound 0.0316 µM,97.3% and 94.3%
same,"viability, T/C",compound 0.1 µM,113% and 112%
same,"viability, T/C",compound 0.316 µM,113% and 133%
same,"viability, T/C",compound 1 µM,104% and 141%
same,IC50,curve of compound,> 1000 nM
